# From paper PMC7109127 (British Journal of Cancer, 2020)
# Where “and” joins values, the source holds several entries; their conditions need not be identical. Identical values can stand only once. Like-named read-outs stand apart in the source and are kept apart here.
# Legend:
# [1] = system: sVEGFR-2; details: by day 27; 1 mg daily cohort; cited from earlier work
# [2] = system: PDGFRβ; assay: in vitro inhibition of PDGFRβ phosphorylation
# [3] = system: SK-HEP-1 cells; details: cited from earlier work
# [4] = cited from earlier work; for mean AUC0–24 / median tmax: all solid tumours, 1 mg
# [5] = system: c-kit; details: in vitro; read-out: half-maximal inhibitory concentration, c-kit phosphorylation; cited from earlier work
# [6] = system: metastatic renal cell carcinoma; details: TIVO-1; cited from earlier work
# [7] = background statement; cited from earlier work
# [8] = TIVO-1; cited from earlier work
# [9] = healthy volunteers; cited from earlier work
# [10] = in vivo
# Experimental: The RP2D was defined as the MTD.
# (§1) The treatment schedule was modified as there was concern on tolerability of longer dosing in patients with underlying cirrhosis. […] Study treatment was continued until disease progression or unacceptable toxicity.
# (§2) Safety assessments were done at baseline, on cycle 1 days 1 and 15, and on day 1 of each cycle thereafter. Tumour assessments were performed by computed tomography or magnetic resonance imaging at baseline and every 8 weeks thereafter. Confirmatory imaging was performed within 6 weeks in patients with complete response or partial response. AEs were assessed using the National Cancer Institute Common Terminology Criteria for Adverse Events (CTCAE) v4.0. Blood sample collection for pharmacokinetic (PK) and pharmacodynamic (PD) analysis was performed on cycle 1 days 1 and 15 pre-dose as well as 2 and 4 h post dose.
# [11] = phase 1b/2 study, safety, DLT and MTD/RP2D (CTCAE v4.0)
# Experimental: The RP2D was defined as the MTD.
# as §1, §2
# [12] = cited from earlier work
# [13] = phase 1b/2 study, plasma pharmacokinetics (LC-MS/MS, NCA and nonlinear mixed-effects model); assay type: in vivo, patients; set-up: AUC0-4: concentration or dose not given beside the values
# Experimental: LC-MS/MS analysis of the extracted samples was performed using an Agilent Technologies (Santa Clara, California) HPLC system and the API 3000 mass spectrometer (Sciex, Framingham, MA) with electrospray ionisation. Chromatographic separation was achieved using a biphasic gradient over a Cortecs C18 column (2.1 × 50 mm^2, Waters Corporation, Milford, MA) preceded by a Cortecs C18+VanGuard Cartridge (2.1 × 5 mm^2, Waters Corporation). Analytes were detected using multiple reaction monitoring in positive ion mode.
# A nonlinear mixed-effects model was developed using first-order conditional estimation with interaction (FOCE-I) with the Laplacian option selected. This estimator was chosen as it is more suitable to modelling sparse data sets. One- and two-compartment structural models were tested with first-order absorption, both with and without a separate bioavailability term. Estimates for inter-subject variability were tested on all PK parameters using exponential relationships and were included where they could be confidently estimated. Inter-occasion variability between cycle 1 day 1 and cycle 1 day 15 was also tested. The residual unexplained variability in drug concentrations was tested with additive, proportional, and combined additive and proportional error models. Model selection was performed on the basis of the negative log-likelihood objective function (OFV) and standard goodness-of-fit and diagnostic plots. The final model was composed of one disposition compartment with first-order absorption and elimination. […] To facilitate comparison with previous studies, AUCs from 0 to 4 and 0 to 24 h were calculated from each individual’s model-predicted PK profile. Similarly, the maximum concentration (Cmax) and time of maximum concentration in a given dosing interval (tmax) were estimated both from the original data and the model prediction. The analysis was performed with NONMEM 7.4.1 (ICON plc, Dublin, Ireland), integrated with PSN 4.6.0 (psn.sourceforge.net) and using the Pirana 2.9.2 interface (pirana-software.com).
# [14] = all solid tumours, 1 mg dose level
# [15] = individual patient estimate (Subject ID in c0)
# [16] = individual patient, Day 1, NCA and Observation
# [17] = individual patient, Day 15, NCA and Observation
smiles,measurement,setting,value
COc1cc2nccc(Oc3ccc(NC(=O)Nc4cc(C)on4)c(Cl)c3)c2cc1OC [tivozanib],sVEGFR-2 decrease from baseline,[1],28%
same,"activity against PDGFRβ, times higher compared to lenvatinib",[2],197 times
same,"activity against PDGFRβ, times higher compared to sorafenib",[2],46 times
same,tumour growth inhibition,[3]; daily oral 0.2 mg/kg for 2 weeks,~60%
same,tumour inhibition,[3]; daily oral 1 mg/kg,~90%
same,mean AUC0–24,[4]; multiple doses,856 ng·h/mL
same,median tmax,[4]; multiple doses,4.01 h
same,mean AUC0–24,[4]; single dose,131.2 ng·h/mL
same,median tmax,[4]; single dose,6.01 h
same,half-life,[4],88.8 to 113 h
same,IC50,[5],1.63 nM
same,overall response rate (ORR),[6],33.1%
same,progression-free survival (PFS),[6],11.9 months
same,liver toxicities or tissue accumulation,[7],no associated liver toxicities or tissue accumulation
same,diarrhoea incidence,[8],23%
same,hypertension incidence,[8],44%
same,palmar–plantar erythrodysesthesia incidence,[8],14%
same,difference in total drug exposure with food consumption,[9],did not show a difference
same,"Decreased appetite, grade 3 and 4",[10]; human,3.7%
same,"Diarrhoea, grade 3–4",[10]; human,0%
same,"Dysphonia, grade 3 and 4",[10]; human,0%
same,"Fatigue, grade 3–4",[10]; human,26%
same,"Hypertension, grade 3 and 4",[10]; human,11%
same,"Increased bilirubin, grade 3 and 4",[10]; human,7.4%
same,"Nausea, grade 3 and 4",[10]; human,0%
same,"PPEDS (palmar–plantar erythrodysesthesia syndrome), Total",[10]; human,11%
same,"PPEDS, Total",[10]; human,3 n
same,"Palmar–plantar erythrodysesthesia, grade 3 and 4",[10]; human,3.7%
same,"Stomatitis, grade 3 and 4",[10]; human,0%
same,"Vomiting, grade 3 and 4",[10]; human,0%
same,dose reductions for toxicity,[10],six
same,permanently discontinued from study treatment for toxicity,[10],four
same,tolerability,[10],well tolerated
same,deaths due to toxicity,[11]; 27 patients,No deaths due to toxicity
same,MTD/RP2D,"[11]; per os once daily, 21 days on–7 days off, advanced HCC",1 mg
same,viral loads,[11]; two HBV-positive and three HCV-positive patients,remained stable
same,"Dry skin, any grade",[12]; [14],28%
same,"Fatigue, any grade",[12]; [14],55%
same,"Fatigue, grade 3–4",[12]; [14],6%
same,"Hypertension, any grade",[12]; [14],39%
same,"Hypertension, grade 3–4",[12]; [14],28%
same,"Palmar–plantar erythrodysesthesia, any grade",[12]; [14],22%
same,maximum-tolerated dose (MTD) and RP2D,"[12]; once daily, 4 weeks on–2 weeks off, advanced refractory solid malignancies",1.5 mg
same,"tmax, Median","[13]; Day 1, 1 mg, NCA and observation",4.067 h
same,AUC(0-t),"[13]; human, plasma, oral, 1 mg, Day 1, 1 mg, Model prediction, read-out: AUC0–4, Mean",14.3 ng·h/mL
same,AUC(0-t),"[13]; human, plasma, oral, 1 mg, Day 1, 1 mg, Model prediction, read-out: AUC0–24, Mean",176 ng·h/mL
same,Cmax,"[13]; human, plasma, oral, 1 mg, Day 1, 1 mg, Model prediction, read-out: Cmax, Mean",8.75 ng/mL
same,tmax,"[13]; human, plasma, oral, 1 mg, Day 1, 1 mg, Model prediction, read-out: tmax, Median",13.3 h
same,AUC(0-t),"[13]; human, plasma, oral, 1 mg, Day 1, 1 mg, NCA and observation, read-out: AUC0–4, Mean",14.2 ng·h/mL
same,Cmax,"[13]; human, plasma, oral, 1 mg, Day 1, 1 mg, NCA and observation, read-out: Cmax, Mean",6.54 ng/mL
same,tmax,"[13]; human, plasma, oral, 1 mg, Day 1, 1 mg, NCA and observation, read-out: tmax, Median",4.07 h
same,AUC(0-t),"[13]; human, plasma, oral, 1 mg, Day 15, 1 mg, Model prediction, read-out: AUC0–4, Mean",190 ng·h/mL
same,AUC(0-t),"[13]; human, plasma, oral, 1 mg, Day 15, 1 mg, Model prediction, read-out: AUC0–24, Mean",1100 ng·h/mL
same,Cmax,"[13]; human, plasma, oral, 1 mg, Day 15, 1 mg, Model prediction, read-out: Cmax, Mean",50.7 ng/mL
same,tmax,"[13]; human, plasma, oral, 1 mg, Day 15, 1 mg, Model prediction, read-out: tmax, Median",7 h
same,AUC(0-t),"[13]; human, plasma, oral, 1 mg, Day 15, 1 mg, NCA and observation, read-out: AUC0–4, Mean",184 ng·h/mL
same,Cmax,"[13]; human, plasma, oral, 1 mg, Day 15, 1 mg, NCA and observation, read-out: Cmax, Mean",58.7 ng/mL
same,tmax,"[13]; human, plasma, oral, 1 mg, Day 15, 1 mg, NCA and observation, read-out: tmax, Median",2.05 h
same,Vd/F,"[13]; human, plasma, oral, 1 mg, typical population value, read-out: Apparent Volume of Distribution (V/F)",105 L
same,Apparent systemic clearance,[13]; [15],0.99 L/h and 0.81 L/h and 0.80 L/h
same,Apparent volume of distribution,[13]; [15],159 L
same,AUC0-4,[13]; [16],20.2 ng·h/mL and 21.6 ng·h/mL and 35.9 ng·h/mL and 27.7 ng·h/mL and 1.5 ng·h/mL and 11.0 ng·h/mL and 7.0 ng·h/mL and 16.2 ng·h/mL and 30.3 ng·h/mL and 18.0 ng·h/mL and 18.1 ng·h/mL and 10.6 ng·h/mL and 10.7 ng·h/mL and 16.6 ng·h/mL and 13.8 ng·h/mL and 6.8 ng·h/mL and 15.5 ng·h/mL and 10.3 ng·h/mL and 3.6 ng·h/mL and 0.6 ng·h/mL and 3.5 ng·h/mL and 21.5 ng·h/mL and 18.8 ng·h/mL and 8.9 ng·h/mL and 4.7 ng·h/mL and 24.5 ng·h/mL and 19.4 ng·h/mL
same,Cmax,[13]; [16],8.57 ng/mL and 13.6 ng/mL and 16.3 ng/mL and 9.53 ng/mL and 1.42 ng/mL and 3.62 ng/mL and 2.78 ng/mL and 6.93 ng/mL and 11.8 ng/mL and 8.23 ng/mL and 6.82 ng/mL and 5.84 ng/mL and 4.7 ng/mL and 7.56 ng/mL and 4.71 ng/mL and 3.4 ng/mL and 5.18 ng/mL and 8.48 ng/mL and 1.4 ng/mL and 0.616 ng/mL and 2 ng/mL and 7.29 ng/mL and 7.79 ng/mL and 5.82 ng/mL and 2.97 ng/mL and 8.63 ng/mL and 10.6 ng/mL
same,tmax,[13]; [16],4.067 h and 4.417 h and 4.05 h and 2.167 h and 4.083 h and 4.183 h and 4.017 h and 4.2 h and 4.033 h and 2.067 h and 4.133 h and 5.25 h and 7.667 h and 2.1 h and 4.35 h and 4.167 h
same,AUC0-4,[13]; [17],333.0 ng·h/mL and 558.5 ng·h/mL and 360.8 ng·h/mL and 205.7 ng·h/mL and 154.1 ng·h/mL and 177.6 ng·h/mL and 112.9 ng·h/mL and 103.0 ng·h/mL and 261.2 ng·h/mL and 156.5 ng·h/mL and 150.0 ng·h/mL and 134.8 ng·h/mL and 134.3 ng·h/mL and 148.1 ng·h/mL and 239.7 ng·h/mL and 175.8 ng·h/mL and 163.5 ng·h/mL and 154.7 ng·h/mL and 185.6 ng·h/mL and 106.3 ng·h/mL
same,Cmax,[13]; [17],89.5 ng/mL and 201 ng/mL and 104 ng/mL and 58.8 ng/mL and 43.1 ng/mL and 47 ng/mL and 31.1 ng/mL and 32.3 ng/mL and 70.9 ng/mL and 61.2 ng/mL and 49.9 ng/mL and 33.3 ng/mL and 37.8 ng/mL and 69.4 ng/mL and 53.6 ng/mL and 43.4 ng/mL and 40.3 ng/mL and 38.7 ng/mL and 57.4 ng/mL and 47.3 ng/mL and 30.8 ng/mL
same,tmax,[13]; [17],2.06 h and 2.01 h and 2.1 h and 2.03 h and 2.07 h and 2.12 h and 2 h and 2.02 h and 4.12 h and 4.09 h and 3.91 h
same,Inter-individual variability (IIV) in CL/F,[13]; population model,42.4 %CV
same,Inter-individual variability (IIV) in V/F,[13]; population model,45.8 %CV
same,Inter-individual variability (IIV) in ka/F,[13]; population model,57.5 %CV
same,Apparent Systemic Clearance (CL/F),[13]; typical population value,0.803 L/h
same,Apparent first-order absorption rate constant (ka/F),[13]; typical population value,0.239 h⁻¹
